Measured values from the supplement of paper PMC13380429.

Columns and labels:
Settings in all cases: 72 h
Caco-2 [1] = assay: cell viability relative to DMSO; higher = less toxic
Calu-3 [2] = assay: as above
HepG2 [3] = assay: as above
U2OS [4] = assay: as above
Vero E6 [5] = assay: as above
Caco-2 [6] = assay: relative viability EC50 (midpoint between 100% and the lowest measured viability); higher = less toxic
Calu-3 [7] = assay: as above
HepG2 [8] = assay: as above
U2OS [9] = assay: as above
Vero E6 [10] = assay: as above
Caco-2 [11] = assay: drug sensitivity score (DSS) for viability; higher = more toxic; extreme values may be limits of the assay
Calu-3 [12] = assay: as above
HepG2 [13] = assay: as above
U2OS [14] = assay: as above
Vero E6 [15] = assay: as above

Structure (SMILES) | cell viability (Caco-2 [1]; 1 nM) | cell viability (Caco-2 [1]; 10 nM) | cell viability (Caco-2 [1]; 100 nM) | cell viability (Caco-2 [1]; 1000 nM) | cell viability (Caco-2 [1]; 10000 nM) | cell viability (Calu-3 [2]; 1 nM) | cell viability (Calu-3 [2]; 10 nM) | cell viability (Calu-3 [2]; 100 nM) | cell viability (Calu-3 [2]; 1000 nM) | cell viability (Calu-3 [2]; 10000 nM) | cell viability (HepG2 [3]; 1 nM) | cell viability (HepG2 [3]; 10 nM) | cell viability (HepG2 [3]; 100 nM) | cell viability (HepG2 [3]; 1000 nM) | cell viability (HepG2 [3]; 10000 nM) | cell viability (U2OS [4]; 1 nM) | cell viability (U2OS [4]; 10 nM) | cell viability (U2OS [4]; 100 nM) | cell viability (U2OS [4]; 1000 nM) | cell viability (U2OS [4]; 10000 nM) | cell viability (Vero E6 [5]; 1 nM) | cell viability (Vero E6 [5]; 10 nM) | cell viability (Vero E6 [5]; 100 nM) | cell viability (Vero E6 [5]; 1000 nM) | cell viability (Vero E6 [5]; 10000 nM) | relative viability EC50 (Caco-2 [6]) | relative viability EC50 (Calu-3 [7]) | relative viability EC50 (HepG2 [8]) | relative viability EC50 (U2OS [9]) | relative viability EC50 (Vero E6 [10]) | drug sensitivity score (Caco-2 [11]) | drug sensitivity score (Calu-3 [12]) | drug sensitivity score (HepG2 [13]) | drug sensitivity score (U2OS [14]) | drug sensitivity score (Vero E6 [15])
CCOC(=O)c1c(C)n(C)c2ccc(O)cc12 [mecarbinate] | 95.1% | 98.9% | 96% | 103% | 105% | 101% | 101% | 98.6% | 90.6% | 106% | 107% | 104% | 105% | 97.8% | 107% | 97.1% | 102% | 94.6% | 100% | 107% | 99.7% | 98.4% | 100% | 92.9% | 109% | > 10 µM | > 10 µM | > 10 µM | > 10 µM | > 10 µM | 0 | 0 | 0 | 0 | 0
CC(C)C(=O)OC[C@H]1O[C@@H](n2ccc(N)nc2=O)[C@](C)(F)[C@@H]1OC(=O)C(C)C [mericitabine] | 93.9% | 86.9% | 96.3% | 91.1% | 102% | 110% | 88.1% | 108% | 109% | 106% | 89.3% | 99.3% | 94.1% | 102% | 91.6% | 97.1% | 94% | 98.6% | 97% | 97.4% | 92.5% | 97.6% | 99.3% | 93.6% | 91.5% | > 10 µM | > 10 µM | > 10 µM | > 10 µM | > 10 µM | 0 | 0 | 0 | 0 | 0
Cn1ccnc1S [methimazole] | 99.3% | 84.3% | 99.7% | 86.5% | 101% | 93.9% | 97.3% | 100% | 100% | 94.5% | 109% | 95.4% | 109% | 81.7% | 101% | 98% | 101% | 98.7% | 99.8% | 98.5% | 104% | 99.3% | 102% | 106% | 101% | > 10 µM | > 10 µM | > 10 µM | > 10 µM | > 10 µM | 0 | 0 | 0 | 0 | 0
C[C@H]1C[C@@H]2[C@H]([C@@H](O)C[C@@]3(C)[C@H]2CC[C@]3(O)C(=O)COC(=O)CCC(=O)O)[C@@]2(C)C=CC(=O)C=C12 [methylprednisolone-sodium-succinate] | 104% | 94.6% | 98.3% | 99.6% | 92.5% | 108% | 99% | 88.8% | 91.2% | 122% | 98.2% | 101% | 89.6% | 103% | 91.2% | 99.2% | 93.8% | 95% | 92.5% | 93.9% | 100% | 103% | 101% | 96% | 98.2% | > 10 µM | > 10 µM | > 10 µM | > 10 µM | > 10 µM | 0 | 0 | 0 | 0 | 0
C[C@](N)(Cc1ccc(O)cc1)C(=O)O [metirosine] | 97.7% | 96.9% | 93.5% | 88.1% | 94.8% | 112% | 113% | 106% | 97.3% | 99.5% | 86.6% | 97.3% | 96.4% | 97.1% | 91.4% | 101% | 96% | 101% | 96% | 99.5% | 95.8% | 94.8% | 95.1% | 95.9% | 96.4% | > 10 µM | > 10 µM | > 10 µM | > 10 µM | > 10 µM | 0 | 0 | 0 | 0 | 0
N=C1NC(=O)/C(=C/c2ccc(O)cc2)S1 [mirin] | 95% | 97.8% | 101% | 97.6% | 96.2% | 89.9% | 105% | 94.8% | 93.4% | 87.8% | 98.3% | 91.1% | 95.2% | 98% | 96.8% | 95.3% | 101% | 97.5% | 99.6% | 97.9% | 99.2% | 96.2% | 96.5% | 93.3% | 104% | > 10 µM | > 10 µM | > 10 µM | > 10 µM | > 10 µM | 0 | 0.1 | 0 | 0 | 0
O=C1c2c(O)ccc(O)c2C(=O)c2c(NCCNCCO)ccc(NCCNCCO)c21 [mitoxantrone] | 93.3% | 96.5% | 86.2% | 53% | 22.3% | 104% | 98.4% | 65.1% | 46.7% | 28.9% | 93.1% | 82.4% | 53.2% | 21.8% | 1.7% | 95.8% | 102% | 88.7% | 30.6% | 0.7% | 98.8% | 96% | 66.5% | 51.4% | 13.6% | 0.565 µM | 0.15 µM | 0.11 µM | 0.514 µM | 0.35 µM | 10.7 | 14.6 | 21.6 | 14.6 | 13.9
CC1(C)CNc2cc(NC(=O)c3cccnc3NCc3ccncc3)ccc21 [motesanib] | 94.6% | 95.5% | 96.8% | 92.1% | 93.2% | 111% | 99.6% | 110% | 110% | 108% | 95.9% | 94% | 97.4% | 93.5% | 84.9% | 103% | 96.7% | 97.9% | 98.9% | 96.8% | 97.3% | 102% | 94.9% | 94% | 96.9% | > 10 µM | > 10 µM | > 10 µM | > 10 µM | > 10 µM | 0 | 0 | 0.1 | 0 | 0
CCCc1c2oc(C(=O)O)cc(=O)c2cc2c(=O)cc(C(=O)O)n(CC)c12 [nedocromil] | 98.3% | 99.8% | 97.9% | 105% | 100% | 102% | 99.4% | 103% | 107% | 98.4% | 113% | 86.5% | 91.5% | 90.6% | 100% | 102% | 106% | 99.4% | 104% | 97.1% | 121% | 100% | 115% | 95.7% | 109% | > 10 µM | > 10 µM | > 10 µM | > 10 µM | > 10 µM | 0 | 0 | 0 | 0 | 0
CC(=O)C(=Cc1cc(O)c(O)c([N+](=O)[O-])c1)C(C)=O [nitecapone] | 94.7% | 92.1% | 99.9% | 95.7% | 96.4% | 97.5% | 93.7% | 105% | 109% | 110% | 103% | 94% | 96.5% | 98.4% | 93.7% | 98.8% | 102% | 96.6% | 103% | 95.6% | 109% | 107% | 105% | 98.7% | 105% | > 10 µM | > 10 µM | > 10 µM | > 10 µM | > 10 µM | 0 | 0 | 0 | 0 | 0
CC1(C)CC[C@]2(C(=O)O)CC[C@]3(C)C(=CC[C@@H]4[C@@]5(C)CC[C@H](O)C(C)(C)[C@@H]5CC[C@]43C)[C@@H]2C1 [oleanolic-acid] | 104% | 97.1% | 93% | 104% | 95.6% | 109% | 110% | 98.3% | 109% | 89.8% | 106% | 96.2% | 89.9% | 99.9% | 94.7% | 95.2% | 98.1% | 94.4% | 102% | 94.5% | 96.3% | 94.7% | 94.9% | 95.3% | 95.3% | > 10 µM | > 10 µM | > 10 µM | > 10 µM | > 10 µM | 0 | 0 | 0 | 0 | 0
Cc1[nH]c(=O)c(C#N)cc1-c1ccc2nccn2c1 [olprinone] | 98.7% | 99.6% | 91.2% | 92% | 94.8% | 107% | 112% | 93.2% | 104% | 98.3% | 93.2% | 102% | 103% | 104% | 104% | 105% | 102% | 101% | 99.9% | 102% | 98.5% | 106% | 94.2% | 102% | 96.7% | > 10 µM | > 10 µM | > 10 µM | > 10 µM | > 10 µM | 0 | 0 | 0 | 0 | 0
Cc1ncc([N+](=O)[O-])n1CC(O)CCl (stereo not given) [ornidazole] | 103% | 101% | 99.1% | 102% | 98.4% | 99.9% | 95.1% | 93.8% | 96.1% | 108% | 101% | 98% | 91.6% | 107% | 99.7% | 91.3% | 97.1% | 91.8% | 95.8% | 102% | 101% | 96.6% | 97.4% | 96% | 104% | > 10 µM | > 10 µM | > 10 µM | > 10 µM | > 10 µM | 0 | 0 | 0 | 0 | 0
O=C1CCCN1CC#CCN1CCCC1 [oxotremorine-sesquifumarate] | 110% | 99.1% | 94.7% | 103% | 98.3% | 96% | 96% | 91.9% | 105% | 101% | 101% | 96% | 104% | 94.9% | 82.6% | 97% | 94.3% | 95.3% | 100% | 102% | 105% | 105% | 104% | 93.8% | 92.8% | > 10 µM | > 10 µM | > 10 µM | > 10 µM | > 10 µM | 0 | 0 | 0.9 | 0 | 0
